# Assay results taken from patent US6469067B1, “Combinations” (Novartis AG, priority 1999, dated 2002).
# Tested on: Dermanyssus gallinae
# Assay: In vitro effect on Dermanyssus gallinae
# Settings: single component; for activity in terms of preventing oviposition, component alone: at 0.32 and 10 ppm
# Experimental: For the sake of simplicity, the chicken mite Dermanyssus gallinae is used. This is a good model for determining the effect on ticks.
# In vitro Effect on Dermanyssus gallinae
# The test is carried out with serial dilutions [avermectin component in concentrations of (32), 10, 3.2, 1.0, 0.32 to 0.0001 ppm; the 1-[4-chloro-3-(3-chlor-5-trifluoromethyl-2-pyridyloxy)phenyl]-3-(2,6-difluorobenzoyl)urea in concentrations of 100, 32, 10, 3.2, 1.0, 0.32 and 0.1 ppm]. For the test, the lowest concentration of one active substance is combined with the lowest concentration of the other active substance, and the limits of activity thus worked out. Ten fully engorged female mites of the genus Dermanyssus gallinae adhered to a plastic adhesive film are brought into contact with 50 μl of an aqueous suspension or emulsion of the test combination in question. After drying, the film is stuck onto a glass disc. This creates a kind of air bubble around each mite, the lower surface of which is formed by the glass disc and the upper surface by a bulging of the adhesive film. This bubble contains sufficient air for the mite to avoid suffocating. After 5 days, the effect of the test substance is evaluated with the aid of a stereomicroscope by assessing the effect on mortality, oviposition, egg quality, hatching rate, pupation rate, and development of protonymphs according to the following 4 criteria:
# 1) if 9 to 10 mites are dead, this indicates a lethal effect (characterised by M);
# 3) if 2 or more mites survive and produce eggs, but no larvae hatch from these eggs and no protonymphs develop, this indicates a development-inhibiting effect (H);
# 4)if 2 or more mites survive and lay the usual number of normal eggs, from which larvae hatch and develop into protonymphs, this indicates no activity (−).
# In each test, two basic suspensions/emulsions (without active ingredient) and one suspension/emulsion with only one of each component are also tested in the corresponding concentrations.
# The test is repeated three times with the following combinations and the results determined. The final result is given in Tables 1 to 3, whereby in the tables marked with a the combinations from the prior art are listed and in the tables marked with b the results of the combinations according to the invention are listed.
molecule,measurement,setting,value
CO[C@H]1C[C@H](O[C@H]2[C@H](C)O[C@@H](O[C@@H]3/C(C)=C/C[C@@H]4C[C@@H](C[C@]5(C=C[C@H](C)[C@@H](C6CCCCC6)O5)O4)OC(=O)[C@@H]4C=C(C)[C@@H](O)[C@H]5OC/C(=C\C=C\[C@@H]3C)[C@]54O)C[C@@H]2OC)O[C@@H](C)[C@@H]1O [Doramectin],"activity in terms of preventing oviposition, component alone",,full activity
Ivermectin,"activity in terms of preventing oviposition, component alone",,full activity
"O=C(NC(=O)c1c(F)cccc1F)Nc1ccc(Cl)c(Oc2ncc(C(F)(F)F)cc2Cl)c1 [B, 1-[4-chloro-3-(3-chloro-5-trifluoromethyl-2-pyridyloxy)phenyl]-3-(2,6-difluorobenzoyl)urea]","concentration up to which oviposition is prevented, component alone",,0.01 ppm
"O=C(NC(=O)c1c(F)cccc1F)Nc1cc(Cl)c(Oc2ncc(C(F)(F)F)cc2Cl)c(Cl)c1 [A, chlorfluazuron]","activity against Dermanyssus gallinae, component alone",all tested concentrations,no activity at any concentration
CO/N=C1\C[C@]2(C[C@@H]3C[C@@H](C/C=C(\C)C[C@@H](C)/C=C/C=C4\CO[C@@H]5[C@H](O)C(C)=C[C@@H](C(=O)O3)[C@]45O)O2)O[C@H](/C(C)=C/C(C)C)[C@H]1C [Moxidectin],"activity in terms of preventing oviposition, component alone",,full activity
